system: large (Lg) crabgrass (Digitaria sanguinalis); assay: Test A pre-/postemergence greenhouse herbicide test, visual injury rating 0-100; type: in vivo; settings: Postemergence, 1000 g ai/ha
Excerpt: (§1) Seeds of plant species selected from barnyardgrass (Echinochloa crus-galli), large (Lg) crabgrass (Digitaria sanguinalis), giant foxtail (Setaria faberii), morningglory (Ipomoea spp.), pigweed (Amaranthus retroflexus), velvetleaf (Abutilon theophrasti), wheat (Triticum aestivum), and corn (Zea mays) were planted into a blend of loam soil and sand and treated preemergence with a directed soil spray using test chemicals formulated in a non-phytotoxic solvent mixture which included a surfactant. At the same time these species were also treated with postemergence applications of test chemicals formulated in the same manner. Plants ranged in height from 2 to 10 cm and were in the one- to two-leaf stage for the postemergence treatment. Treated plants and untreated controls were maintained in a greenhouse for approximately 10 days, after which time all treated plants were compared to untreated controls and visually evaluated for injury. Plant response ratings, summarized in Table A, are based on a 0 to 100 scale where 0 is no effect and 100 is complete control. A dash (-) response means no test result.

Row | Structure (SMILES) | Plant response rating (0 to 100 scale), Crabgrass, Large
1 | CON=C(c1ccccc1)c1c[nH]nc1-c1cc(Cl)cc(Cl)c1 [Compound 64] | 0
2 | CCn1cc(C(=O)c2cncc(F)c2)c(-c2cc(Cl)cc(Cl)c2)n1 [Compound 21] | 10
3 | Clc1cc(Cl)cc(-c2n[nH]cc2C(=NNc2ccccc2)c2ccccc2)c1 [Compound 33] | 0
4 | N=C(c1ccccc1)c1c[nH]nc1-c1cc(Cl)cc(Cl)c1 [Compound 68] | 0

same assay, conditions: Preemergence, 1000 g ai/ha

Row | Structure (SMILES) | Plant response rating (0 to 100 scale), Crabgrass, Large
5 | CON=C(c1ccccc1)c1c[nH]nc1-c1cc(Cl)cc(Cl)c1 [Compound 64] | 0
6 | CCn1cc(C(=O)c2cncc(F)c2)c(-c2cc(Cl)cc(Cl)c2)n1 [Compound 21] | 0
7 | Clc1cc(Cl)cc(-c2n[nH]cc2C(=NNc2ccccc2)c2ccccc2)c1 [Compound 33] | 0
8 | N=C(c1ccccc1)c1c[nH]nc1-c1cc(Cl)cc(Cl)c1 [Compound 68] | 0

system: barnyardgrass (Echinochloa crus-galli); assay: as above; type: in vivo; settings: Postemergence, 1000 g ai/ha
Excerpt: as §1

Row | Structure (SMILES) | Plant response rating (0 to 100 scale), Barnyardgrass
9 | CON=C(c1ccccc1)c1c[nH]nc1-c1cc(Cl)cc(Cl)c1 [Compound 64] | 0
10 | CCn1cc(C(=O)c2cncc(F)c2)c(-c2cc(Cl)cc(Cl)c2)n1 [Compound 21] | 0
11 | Clc1cc(Cl)cc(-c2n[nH]cc2C(=NNc2ccccc2)c2ccccc2)c1 [Compound 33] | 0
12 | N=C(c1ccccc1)c1c[nH]nc1-c1cc(Cl)cc(Cl)c1 [Compound 68] | 0

same assay, conditions: Preemergence, 1000 g ai/ha

Row | Structure (SMILES) | Plant response rating (0 to 100 scale), Barnyardgrass
13 | CON=C(c1ccccc1)c1c[nH]nc1-c1cc(Cl)cc(Cl)c1 [Compound 64] | 0
14 | CCn1cc(C(=O)c2cncc(F)c2)c(-c2cc(Cl)cc(Cl)c2)n1 [Compound 21] | 0
15 | Clc1cc(Cl)cc(-c2n[nH]cc2C(=NNc2ccccc2)c2ccccc2)c1 [Compound 33] | 0
16 | N=C(c1ccccc1)c1c[nH]nc1-c1cc(Cl)cc(Cl)c1 [Compound 68] | 0

system: wheat (Triticum aestivum); assay: as above; type: in vivo; settings: Postemergence, 1000 g ai/ha
Excerpt: as §1

Row | Structure (SMILES) | Plant response rating (0 to 100 scale), Wheat
17 | CON=C(c1ccccc1)c1c[nH]nc1-c1cc(Cl)cc(Cl)c1 [Compound 64] | 0
18 | CCn1cc(C(=O)c2cncc(F)c2)c(-c2cc(Cl)cc(Cl)c2)n1 [Compound 21] | 0
19 | Clc1cc(Cl)cc(-c2n[nH]cc2C(=NNc2ccccc2)c2ccccc2)c1 [Compound 33] | 0
20 | N=C(c1ccccc1)c1c[nH]nc1-c1cc(Cl)cc(Cl)c1 [Compound 68] | 0

same assay, conditions: Preemergence, 1000 g ai/ha

Row | Structure (SMILES) | Plant response rating (0 to 100 scale), Wheat
21 | CON=C(c1ccccc1)c1c[nH]nc1-c1cc(Cl)cc(Cl)c1 [Compound 64] | 0
22 | CCn1cc(C(=O)c2cncc(F)c2)c(-c2cc(Cl)cc(Cl)c2)n1 [Compound 21] | 0
23 | Clc1cc(Cl)cc(-c2n[nH]cc2C(=NNc2ccccc2)c2ccccc2)c1 [Compound 33] | 0
24 | N=C(c1ccccc1)c1c[nH]nc1-c1cc(Cl)cc(Cl)c1 [Compound 68] | 0

system: corn (Zea mays); assay: as above; type: in vivo; settings: Postemergence, 1000 g ai/ha
Excerpt: as §1

Row | Structure (SMILES) | Plant response rating (0 to 100 scale), Corn
25 | CON=C(c1ccccc1)c1c[nH]nc1-c1cc(Cl)cc(Cl)c1 [Compound 64] | 0
26 | CCn1cc(C(=O)c2cncc(F)c2)c(-c2cc(Cl)cc(Cl)c2)n1 [Compound 21] | 0
27 | Clc1cc(Cl)cc(-c2n[nH]cc2C(=NNc2ccccc2)c2ccccc2)c1 [Compound 33] | 0
28 | N=C(c1ccccc1)c1c[nH]nc1-c1cc(Cl)cc(Cl)c1 [Compound 68] | 0

same assay, conditions: Preemergence, 1000 g ai/ha

Row | Structure (SMILES) | Plant response rating (0 to 100 scale), Corn
29 | CON=C(c1ccccc1)c1c[nH]nc1-c1cc(Cl)cc(Cl)c1 [Compound 64] | 0
30 | CCn1cc(C(=O)c2cncc(F)c2)c(-c2cc(Cl)cc(Cl)c2)n1 [Compound 21] | 0
31 | Clc1cc(Cl)cc(-c2n[nH]cc2C(=NNc2ccccc2)c2ccccc2)c1 [Compound 33] | 0
32 | N=C(c1ccccc1)c1c[nH]nc1-c1cc(Cl)cc(Cl)c1 [Compound 68] | 0

system: giant foxtail (Setaria faberii); assay: as above; type: in vivo; settings: Postemergence, 1000 g ai/ha
Excerpt: as §1

Row | Structure (SMILES) | Plant response rating (0 to 100 scale), Foxtail, Giant
33 | CON=C(c1ccccc1)c1c[nH]nc1-c1cc(Cl)cc(Cl)c1 [Compound 64] | 0
34 | CCn1cc(C(=O)c2cncc(F)c2)c(-c2cc(Cl)cc(Cl)c2)n1 [Compound 21] | 0
35 | Clc1cc(Cl)cc(-c2n[nH]cc2C(=NNc2ccccc2)c2ccccc2)c1 [Compound 33] | 0
36 | N=C(c1ccccc1)c1c[nH]nc1-c1cc(Cl)cc(Cl)c1 [Compound 68] | 0

same assay, conditions: Preemergence, 1000 g ai/ha

Row | Structure (SMILES) | Plant response rating (0 to 100 scale), Foxtail, Giant
37 | CON=C(c1ccccc1)c1c[nH]nc1-c1cc(Cl)cc(Cl)c1 [Compound 64] | 0
38 | CCn1cc(C(=O)c2cncc(F)c2)c(-c2cc(Cl)cc(Cl)c2)n1 [Compound 21] | 0
39 | Clc1cc(Cl)cc(-c2n[nH]cc2C(=NNc2ccccc2)c2ccccc2)c1 [Compound 33] | 0
40 | N=C(c1ccccc1)c1c[nH]nc1-c1cc(Cl)cc(Cl)c1 [Compound 68] | 0

system: morningglory (Ipomoea spp.); assay: as above; type: in vivo; settings: Postemergence, 1000 g ai/ha
Excerpt: as §1

Row | Structure (SMILES) | Plant response rating (0 to 100 scale), Morningglory
41 | CON=C(c1ccccc1)c1c[nH]nc1-c1cc(Cl)cc(Cl)c1 [Compound 64] | 0
42 | CCn1cc(C(=O)c2cncc(F)c2)c(-c2cc(Cl)cc(Cl)c2)n1 [Compound 21] | 0
43 | Clc1cc(Cl)cc(-c2n[nH]cc2C(=NNc2ccccc2)c2ccccc2)c1 [Compound 33] | 0
44 | N=C(c1ccccc1)c1c[nH]nc1-c1cc(Cl)cc(Cl)c1 [Compound 68] | 0

same assay, conditions: Preemergence, 1000 g ai/ha

Row | Structure (SMILES) | Plant response rating (0 to 100 scale), Morningglory
45 | CON=C(c1ccccc1)c1c[nH]nc1-c1cc(Cl)cc(Cl)c1 [Compound 64] | 0
46 | CCn1cc(C(=O)c2cncc(F)c2)c(-c2cc(Cl)cc(Cl)c2)n1 [Compound 21] | 0
47 | Clc1cc(Cl)cc(-c2n[nH]cc2C(=NNc2ccccc2)c2ccccc2)c1 [Compound 33] | 0
48 | N=C(c1ccccc1)c1c[nH]nc1-c1cc(Cl)cc(Cl)c1 [Compound 68] | 0

system: velvetleaf (Abutilon theophrasti); assay: as above; type: in vivo; settings: Postemergence, 1000 g ai/ha
Excerpt: as §1

Row | Structure (SMILES) | Plant response rating (0 to 100 scale), Velvetleaf
49 | CON=C(c1ccccc1)c1c[nH]nc1-c1cc(Cl)cc(Cl)c1 [Compound 64] | 80
50 | CCn1cc(C(=O)c2cncc(F)c2)c(-c2cc(Cl)cc(Cl)c2)n1 [Compound 21] | 90
51 | Clc1cc(Cl)cc(-c2n[nH]cc2C(=NNc2ccccc2)c2ccccc2)c1 [Compound 33] | 100
52 | N=C(c1ccccc1)c1c[nH]nc1-c1cc(Cl)cc(Cl)c1 [Compound 68] | 90

same assay, conditions: Preemergence, 1000 g ai/ha

Row | Structure (SMILES) | Plant response rating (0 to 100 scale), Velvetleaf
53 | CON=C(c1ccccc1)c1c[nH]nc1-c1cc(Cl)cc(Cl)c1 [Compound 64] | 0
54 | CCn1cc(C(=O)c2cncc(F)c2)c(-c2cc(Cl)cc(Cl)c2)n1 [Compound 21] | 80
55 | Clc1cc(Cl)cc(-c2n[nH]cc2C(=NNc2ccccc2)c2ccccc2)c1 [Compound 33] | 80
56 | N=C(c1ccccc1)c1c[nH]nc1-c1cc(Cl)cc(Cl)c1 [Compound 68] | 100

system: pigweed (Amaranthus retroflexus); assay: as above; type: in vivo; settings: Postemergence, 1000 g ai/ha
Excerpt: as §1

Row | Structure (SMILES) | Plant response rating (0 to 100 scale), Pigweed
57 | CON=C(c1ccccc1)c1c[nH]nc1-c1cc(Cl)cc(Cl)c1 [Compound 64] | 80
58 | CCn1cc(C(=O)c2cncc(F)c2)c(-c2cc(Cl)cc(Cl)c2)n1 [Compound 21] | 100
59 | Clc1cc(Cl)cc(-c2n[nH]cc2C(=NNc2ccccc2)c2ccccc2)c1 [Compound 33] | 100
60 | N=C(c1ccccc1)c1c[nH]nc1-c1cc(Cl)cc(Cl)c1 [Compound 68] | 100

same assay, conditions: Preemergence, 1000 g ai/ha

Row | Structure (SMILES) | Plant response rating (0 to 100 scale), Pigweed
61 | CON=C(c1ccccc1)c1c[nH]nc1-c1cc(Cl)cc(Cl)c1 [Compound 64] | 0
62 | CCn1cc(C(=O)c2cncc(F)c2)c(-c2cc(Cl)cc(Cl)c2)n1 [Compound 21] | 80
63 | Clc1cc(Cl)cc(-c2n[nH]cc2C(=NNc2ccccc2)c2ccccc2)c1 [Compound 33] | 100
64 | N=C(c1ccccc1)c1c[nH]nc1-c1cc(Cl)cc(Cl)c1 [Compound 68] | 100
